Reference: publication PMC6044451 (Journal of medicinal chemistry, 2018)

Test system: HIV-1LAI
Assay: Antiviral activity in MT-2 human T-lymphoid cells exposed to HIV-1LAI
Format: cell-based

| IC50 (Human immunodeficiency virus 1, MT2, in Homo sapiens, read-out: antiviral IC50) | Structure (SMILES) | improvement in antiviral activity compared to inhibitor 4b (MT-2 cells exposed to HIV-1LAI, versus 4b) |
| --- | --- | --- |
|  | COc1ccc(S(=O)(=O)N(CC(C)C)C[C@@H](O)[C@H](Cc2ccccc2)NC(=O)O[C@H]2C[C@H]3CO[C@H]4OCC[C@@H]2[C@@H]34)cc1 [Inhibitor 4c, (2aR,2a^1R,4S,4aR,7aR)-Octahydro-2H-1,7-dioxacyclopenta[cd]inden-4-yl ((2S,3R)-3-hydroxy-4-((N-isobutyl-4-methoxyphenyl)sulfonamido)-1-phenylbutan-2-yl)carbamate] | 4 fold |
| 21 nM | CC(C)(C)NC(=O)[C@@H]1C[C@@H]2CCCC[C@@H]2CN1C[C@@H](O)[C@H](Cc1ccccc1)NC(=O)[C@H](CC(N)=O)NC(=O)c1ccc2ccccc2n1 [SQV, saquinavir] |  |
